33 compounds from patent publication US7432283B2, “Heterocyclic GABAA subtype selective receptor modulators” (Roche Palo Alto LLC, priority 2004, dated 2008) can be followed below.

Where a name gives a salt, the structure may show the parent alone.

For the compound `Cc1cc(C)c(N2CCCc3c2nn(C)c3C(C)O)c(C)c1` (stereo not drawn) [Compound 2-15, 1-[7-(2,4,6-trimethyl-phenyl)-2-methyl-4,5,6,7-tetrahydro-2H-pyrazolo[3,4-b]pyridin-3-yl]-ethanol], the melting point lay within 178 to 179.6 °C.

`CCCC(O)(c1nccn1CC)c1c2c(nn1C)N(c1c(C)cc(C)cc1C)CCC2` (stereo not drawn) [Compound 2-11, 1-(1-Ethyl-1H-imidazol-2-yl)-1-[2-methyl-7-(2,4,6-trimethylphenyl)-4,5,6,7-tetrahydro-2H-pyrazolo[3,4-b]pyridin-3-yl]butan-1-ol] displayed a melting point of 94.9 to 100.9 °C.

In the case of `Cc1cc(C)c(N2CCCc3c2nn(C)c3C(C)C)c(C)c1` [Compound 4-7, 3-Isopropyl-2-methyl-7-(2,4,6-trimethyl-phenyl)-4,5,6,7-tetrahydro-2H-pyrazolo[3,4-b]pyridine], the melting point lay within 105.9 to 108.9 °C.

As to `Cn1nc2c(c1C(=O)c1ccccn1)CCCN2c1ccc(Cl)cc1Cl` [Compound 6-1, [7-(2,4-Dichloro-phenyl)-2-methyl-4,5,6,7-tetrahydro-2H-pyrazolo[3,4-b]pyridin-2-yl]-methanone], the melting point was in the range of 142.1 to 149.2 °C.

In turn, `Cc1cc(C)c(N2CCCc3c2nn(C)c3Br)c(C)c1` [Compound 1-3, 3-Bromo-2-methyl-7-(2,4,6-trimethyl-phenyl)-4,5,6,7-tetrahydro-2H-pyrazolo[3,4-b]pyridine] came in with a melting point of 94.6 to 97.9 °C.

For the compound `CCCC(O)(CCC)c1c2c(nn1C)N(c1c(C)cc(C)cc1C)CCC2` [Compound 2-2, 4-[2-Methyl-7-(2,4,6-trimethylphenyl)-4,5,6,7-tetrahydro-2H-pyrazolo[3,4-b]pyridin-3-yl] heptan-4-ol], the melting point is 126 to 127.9 °C.

`CC/C=C(\CCC)c1c2c(nn1C)N(c1c(C)cc(C)cc1C)CCCC2` [Compound 3-4, 2-Methyl-3-(1-propylbut-1-enyl)-8-(2,4,6-trimethylphenyl)-2,4,5,6,7,8-hexahydro-1,2,8-triazaazulene] showed a melting point of 101.9 to 103.9 °C.

The compound `Cc1cc(C)c(N2CCCc3c2nn(C)c3C=O)c(C)c1` [Compound 2-24, 2-Methyl-7-(2,4,6-trimethyl-phenyl)-4,5,6,7-tetrahydro-2H-pyrazolo[3,4-b] pyridine-3-carbaldehyde] registered a melting point of 120.5 to 123.5 °C.

On to `CCCN(CC1CC1)C(=O)c1c2c(nn1C)N(c1c(C)cc(C)cc1Cl)CCC2` [Compound 7-1, 7-(2-Chloro-4,6-dimethylphenyl)-2-methyl-4,5,6,7-tetrahydro-2H-pyrazolo[3,4-b]pyridine-3-carboxylic acidcyclopropylmethylpropyl amide], for which the melting point fell in the range of 120.6 to 122 °C.

The compound `C=Cc1c2c(nn1C)N(c1c(C)cc(C)cc1C)CCC2` [Compound 3-8, 2-methyl-7-(2,4,6-trimethyl-phenyl)-3-vinyl-4,5,6,7-tetrahydro-2H-pyrazolo[3,4-b]pyridine] showed a melting point of 64.4 to 67.6 °C.

`CCC(O)c1c2c(nn1C)N(c1c(C)cc(C)cc1C)CCC2` (stereo not drawn) [Compound 2-10, 1-[2-Methyl-7-(2,4,6-trimethylphenyl)-4,5,6,7-tetrahydro-2H-pyrazolo[3,4-b]pyridin-3-yl]propan-1-ol] came in with a melting point of 179.4 to 180.9 °C.

Turning to `Cc1cc(C)c(N2CCCc3c2nn(C)c3C#N)c(C)c1` [Compound 2-22, 2-Methyl-7-(2,4,6-trimethyl-phenyl)-4,5,6,7-tetrahydro-2H-pyrazolo[3,4-b] pyridine-3-carbonitrile], the melting point lay in the range of 128.5 to 136.6 °C.

In turn, `CCC(CC)Nc1c2c(nn1C)N(c1c(C)cc(C)cc1C)CCC2` [Compound 5-36, (1-Ethylpropyl)-[2-methyl-7-(2,4,6-trimethyl-phenyl)-4,5,6,7-tetrahydro-2H-pyrazolo[3,4-b]pyridin-3-yl]-amine] registered a melting point of 99.3 to 104.9 °C.

The compound `CCCC(O)(c1nccs1)c1c2c(nn1C)N(c1c(C)cc(C)cc1C)CCC2` (stereo not drawn) [Compound 2-8, 1-[2-Methyl-7-(2,4,6-trimethylphenyl)-4,5,6,7-tetrahydro-2H-pyrazolo[3,4-b]pyridin-3-yl]-1-thiazol-2-ylbutan-1-ol] came in with a melting point of 160.1 to 165.6 °C.

As for `Cc1cc(C)c(N2CCCc3cn(C)nc32)c(Cl)c1` [Compound 2-13, 7-(2-Chloro-4,6-dimethylphenyl)-2-methyl-4,5,6,7-tetrahydro-2H-pyrazolo[3,4-b]pyridine], the melting point fell in the range of 97 to 98 °C.

`CCCC(O)(CCC)c1c2c(nn1C)N(c1c(C)cc(C)cc1C)CCCC2` [Compound 2-4, 4-[2-Methyl-8-(2,4,6-trimethylphenyl)-2,4,5,6,7,8-hexahydro-1,2,8-triazaazulen-3-yl]heptan-4-ol]: the melting point is 87 to 91.1 °C.

For the compound `Cc1cc(C)c(N2CCCc3c2nn(C)c3S(C)(=O)=O)c(C)c1` [Compound 2-21, 3-Methanesulfonyl-2-methyl-7-(2,4,6-trimethyl-phenyl)-4,5,6,7-tetrahydro-2H-pyrazolo[3,4-b]pyridine], the melting point fell in the range of 181.6 to 183 °C.

As to `Cc1cc(C)c(N2CCCc3c2nn(C)c3Br)c(Cl)c1` [Compound 1-1, 3-Bromo-7-(2-chloro-4,6-dimethylphenyl)-2-methyl-4,5,6,7-tetrahydro-2H-pyrazolo[3,4-b]pyridine], the melting point was 106 to 107 °C.

Take `Cc1cc(C)c(N2CCCc3c2nn(C)c3C(=O)N2CCc3ccccc3C2)c(C)c1` [Compound 7-2, (3,4-Dihydro-1H-isoquinolin-2-yl)-[2-methyl-7-(2,4,6-trimethyl-phenyl)-4,5,6,7-tetrahydro-2H-pyrazolo[3,4-b]pyridin-3-yl]-methanone]: the melting point fell in the range of 80.3 to 87.7 °C.

`Cc1cc(C)c(N2CCCc3c2nn(C)c3CN2CCc3ccccc3C2)c(C)c1` (as salt: hydrochloride) [Compound 7-5, 2-[2-Methyl-7-(2,4,6-trimethyl-phenyl)-4,5,6,7-tetrahydro-2H-pyrazolo[3,4-b]pyridin-3-ylmethyl]-1,2,3,4-tetetrahydroisoquinolinedihydrochloride]: the melting point lay in the range of 236.4 to 241 °C.

`Cn1[nH]c2c(c1=O)CCCN2c1ccc(Cl)cc1` [Compound 1-17, 7-(4-chloro-phenyl)-2-methyl-1,2,4,5,6,7-hexahydro-pyrazolo[3,4-b]pyridin-3-one] returned a melting point of 219.5 to 221.6 °C.

For `Cc1cc(C)c(N2CCCc3c2nn(C)c3N)c(C)c1` [Compound 5-52, 2-methyl-7-(2,4,6-trimethyl-phenyl)-4,5,6,7-tetrahydro-2H-pyrazolo[3,4-b]pyridin-3-ylamine], the melting point was 208.8 to 210.9 °C.

As for `COCC(O)(COC)c1c2c(nn1C)N(c1c(C)cc(C)cc1C)CCC2` [Compound 2-6, 1,3-Dimethoxy-2-[2-methyl-7-(2,4,6-trimethylphenyl)-4,5,6,7-tetrahydro-2H-pyrazolo[3,4-b]pyridin-3-yl]propan-2-ol], the melting point fell in the range of 120.3 to 121.8 °C.

As to `CCOC(=O)Nc1c2c(nn1C)N(c1c(C)cc(C)cc1Cl)CCC2` [Compound 5-4, [7-(2-Chloro-4,6-dimethylphenyl)-2-methyl-4,5,6,7-tetrahydro-2H-pyrazolo[3,4-b]pyridin-3-yl]carbamic acid ethyl ester], the melting point fell in the range of 204 to 207.8 °C.

Turning to `Cc1cc(C)c(N2CCCc3c2nn(C)c3C(=O)O)c(C)c1` [Compound 5-2, 7-(2,4,6-Trimethylphenyl)-2-methyl-4,5,6,7-tetrahydro-2H-pyrazolo[3,4-b]pyridine-3-carboxylic acid], the melting point is 228.6 to 233.9 °C.

As to `Cc1cc(C)c(N2CCCc3c2[nH]n(C)c3=O)c(Cl)c1` [Compound 1-15, 7-(2-Chloro-4,6-dimethyl-phenyl)-2-methyl-1,2,4,5,6,7-hexahydro-pyrazolo[3,4-b]pyridin-3-one], the melting point lay within 103 to 109 °C.

`C=Cc1c2c(nn1C)N(c1ccc(Cl)cc1Cl)CCC2` [Compound 3-7, 7-(2,4-Dichloro-phenyl)-2-methyl-3-vinyl-4,5,6,7-tetrahydro-2H-pyrazolo[3,4-b]pyridine] came in with a melting point of 99.6 to 100.6 °C.

Consider `CNc1c2c(nn1C)N(c1c(C)cc(C)cc1C)CCC2` [Compound 5-49, Methyl-[2-methyl-7-(2,4,6-trimethyl-phenyl)-4,5,6,7-tetrahydro-2H-pyrazolo[3,4-b]pyridin-3-yl]-amine], for which the melting point lay within 143.3 to 144.9 °C.

In the case of `CSc1c2c(nn1C)N(c1c(C)cc(C)cc1C)CCC2` [Compound 2-20, 2-Methyl-3-methylsulfanyl-7-(2,4,6-trimethyl-phenyl)-4,5,6,7-tetrahydro-2H-pyrazolo[3,4-b]pyridine], the melting point fell in the range of 90.3 to 91.7 °C.

For `COCC(=O)Nc1c2c(nn1C)N(c1c(C)cc(C)cc1C)CCC2` [Compound 7-4, 2-Methoxy-N-[2-methyl-7-(2,4,6-trimethyl-phenyl)-4,5,6,7-tetrahydro-2H-pyrazolo[3,4-b]pyridin-3-yl]acetamide], the melting point lay in the range of 133.8 to 135 °C.

In turn, `CCC(COC)Nc1c2c(nn1C)N(c1c(C)cc(C)cc1C)CCC2` (stereo not drawn) [Compound 5-40, (1-Methoxymethylpropyl)-[2-methyl-7-(2,4,6-trimethylphenyl)-4,5,6,7-tetrahydro-2H-pyrazolo[3,4-b]pyridin-3-yl]-amine] came in with a melting point of 96.5 to 102.5 °C.

The compound `CCCC(CCC)c1c2c(nn1C)N(c1c(C)cc(C)cc1C)CCC2` [Compound 4-2, 2-Methyl-3-(1-propylbutyl)-7-(2,4,6-trimethylphenyl)-4,5,6,7-tetrahydro-2H-pyrazolo[3,4-b]pyridine] displayed a melting point of 91.5 to 92 °C.

Regarding `Cc1cc(C)c(N2CCCc3c2nn(C)c3N)c(Cl)c1` [Compound 5-45, 7-(2-Chloro-4,6-dimethyl-phenyl)-2-methyl-4,5,6,7-tetrahydro-2H-pyrazolo[3,4-b]pyridin-3-ylamine], the melting point was in the range of 234 to 236 °C.

As usually defined, the melting point is the temperature, or range, at which the solid turns liquid.
